Source: patent US11103509B2 (University of Kentucky Research Foundation, priority 2018, dated 2021)
Like-named read-outs stand apart in the source and are kept apart here.

How the values were obtained:
[1] = biological target: T1, human mPGES-1 (Homo sapiens, UniProt O14684); assay: in vitro inhibitory activity against human mPGES-1 (PGE2 enzyme immunoassay); type: biochemical; conditions: for inhibition at 10 µM: read-out: Inhibition (%) at 10 μM
T1 construct: made in house
T1 sequence (O14684 1-152): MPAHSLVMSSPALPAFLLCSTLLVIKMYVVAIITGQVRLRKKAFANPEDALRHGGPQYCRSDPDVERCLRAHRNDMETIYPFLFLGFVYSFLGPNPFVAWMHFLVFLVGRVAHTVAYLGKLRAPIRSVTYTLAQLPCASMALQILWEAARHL
Method: The above computational predictions were followed by in vitro activity assays for their actual inhibitory activity against human mPGES-1 using an ELISA assay previously-described.^16-17, 19 Specifically, a total of 18 FDA-approved drugs were assayed for their inhibitory activity against human mPGES-1.
The protocol for the protein preparation and in vitro activity assays were the same as described previously.^69-72 The enzyme activity assays were performed on ice in 1.5 ml microfuge tubes by using the expressed human mPGES-1. The reaction mixture contained: 0.2 M Na2HPO4/NaH2PO4, pH 7.2, 10 μL; 0.1 M GSH, 2.5 μL; diluted microsomal enzyme (80 μg/mL), 1 μL; PGH2 (0.31 mM in DMF), 5 μL; 1 μL inhibitor; and H2O in a final reaction volume of 100 μL. PGH2 was stored in dry ice and used to initiate the reaction. Compounds were incubated with the enzyme for 15 min at room temperature before the addition of cold PGH2 (1 μM final) to initiate the enzyme reaction. After 30 s, 10 μL of SnCl2 (40 mg/mL) in ethanol was added to stop the reaction. The non-enzymatic conversion of PGH2 to PGE2 was performed in the same buffer devoid of enzyme. The reaction mixture was placed on ice until PGE2 production was determined by the PGE2 enzyme immunoassay as described earlier. IC50 values of the inhibitors were calculated by using the GraphPad Prism 6.0.

[2] = test system: pain in cancer patients; assay: clinical data mining: pain complaints in afatinib Phase III clinical trial NCT00656136; type: in vivo, human
Method: To address this question, data from phase III clinical trial (NCT00656136) was also analyzed for drug afatinib, another EGFR and HER2 dual inhibitor approved by the FDA in 2013.

[3] = test system: pain in cancer patients; conditions: cited from earlier work
[4] = 10 μM, single-concentration screening
[5] = NCT00656136, may include multiple types of pain from each patient
[6] = NCT00656136, with drug total 390

SMILES	IC50 [1]	inhibition at 10 µM [1, 4]	further results
COc1cc(C)c(/C=C/C(C)=C/C=C/C(C)=C/C(=O)O)c(C)c1C [Acitretin]	3.5 ± 1.6 µM	83%	–
CC(C)(C)C(=O)OCOP(=O)(COCCn1cnc2c(N)ncnc21)OCOC(=O)C(C)(C)C [Adefovir Dipivoxil]	–	19%	–
COc1cc2nc(N(C)CCCNC(=O)C3CCCO3)nc(N)c2cc1OC (centres unmarked) [Alfuzosin]	–	22%	–
CCCCC[C@H](O)/C=C/[C@H]1[C@H](O)CC(=O)[C@@H]1CCCCCCC(=O)O [Alprostadil]	–	11%	–
C[C@H]1[C@H](NC(=O)/C(=N\OC(C)(C)C(=O)O)c2csc(N)n2)C(=O)N1S(=O)(=O)O [Aztreonam]	11.4 ± 1.1 µM	53%	–
C=C1/C(=C\C=C2/CCC[C@]3(C)[C@@H]([C@H](C)/C=C/[C@@H](O)C4CC4)CC[C@@H]23)C[C@@H](O)C[C@@H]1O [Calcipotriene]	3 ± 1.1 µM	68%	–
CO[C@@]1(NC(=O)C2SC(=C(C(N)=O)C(=O)[O-])S2)C(=O)N2C(C(=O)[O-])=C(CSc3nnnn3C)CS[C@@H]21.[Na+].[Na+] (some centres unmarked) [Cefotetan Disodium]	13.5 ± 4 µM	–	Inhibition (%) at 10 μM [1, 4]: 44%
COCC1=C(C(=O)OC(C)OC(=O)OC(C)C)N2C(=O)[C@@H](NC(=O)/C(=N\OC)c3csc(N)n3)[C@H]2SC1 (some centres unmarked) [Cefpodoxime Proxetil]	29.7 ± 6.3 µM	47%	–
CO/N=C(\C(=O)N[C@@H]1C(=O)N2C(C(=O)O)=C(CSc3nc(=O)c(=O)[nH]n3C)CS[C@H]12)c1csc(N)n1 [Ceftriaxone]	7.2 ± 2.4 µM	57%	–
CCCCC[C@H](O)/C=C/[C@H]1[C@H](O)CC(=O)[C@@H]1C/C=C\CCCC(=O)O [Dinoprostone]	–	4%	–
OCCN(CCO)c1nc(N2CCCCC2)c2nc(N(CCO)CCO)nc(N3CCCCC3)c2n1 [Dipyridamole]	–	36%	–
COc1cc2nc(N3CCN(C(=O)C4COc5ccccc5O4)CC3)nc(N)c2cc1OC (centres unmarked) [Doxazosin]	–	21%	–
C[C@]12CC[C@@H]3c4ccc(OC(=O)N(CCCl)CCCl)cc4CC[C@H]3[C@@H]1CC[C@@H]2OP(=O)(O)O [Estramustine Phosphate]	–	–	inhibition at 10 µM [1]: 36%
CS(=O)(=O)CCNCc1ccc(-c2ccc3ncnc(Nc4ccc(OCc5cccc(F)c5)c(Cl)c4)c3c2)o1 [Lapatinib Ditosylate]	–	99%	–
CC1(C)S[C@@H]2[C@H](NC(=O)COc3ccccc3)C(=O)N2[C@H]1C(=O)[O-].[K+] [Penicillin V Potassium]	–	–	Inhibition (%) at 10 μM [1, 4]: 36%
C[C@]12C=CC(=O)C=C1CC[C@@H]1[C@@H]2[C@@H](O)C[C@@]2(C)[C@H]1CC[C@]2(O)C(=O)CO [Prednisolone]	–	44%	–
Cc1ccccc1C(=O)Nc1ccc(C(=O)N2CCCC(O)c3cc(Cl)ccc32)c(C)c1 (centres unmarked) [Tolvaptan]	10.2 ± 2.5 µM	52%	–
CCOC(=O)[C@H](CCc1ccccc1)N[C@@H](C)C(=O)N1[C@H](C(=O)O)C[C@H]2CCCC[C@@H]21 [Trandolapril]	9 ± 2.3 µM	54%	–
CN(C)C/C=C/C(=O)Nc1cc2c(Nc3ccc(F)c(Cl)c3)ncnc2cc1O[C@H]1CCOC1 [afatinib]	–	–	analgesic effect (in words) ([2]; NCT00656136, compared to placebo): no analgesic effects at all; # of patients complaining pain/# of patients given afatinib, Counts: Total pain occurrence [2, 5]: 104/390; patients complaining pain, Percentage(%): Total pain occurrence [2, 5]: 26.67%; Back Pain, With drug pains [3, 6]: 29; Headache, With drug pains [3, 6]: 21; Pain In Extremity, With drug pains [3, 6]: 27; Pain-throat/pharynx/larynx, With drug pains [3, 6]: 27; # of patients complaining pain/# of patients given afatinib, Counts: Back Pain ([3]; NCT00656136): 29/390; # of patients complaining pain/# of patients given afatinib, Counts: Headache ([3]; NCT00656136): 21/390; # of patients complaining pain/# of patients given afatinib, Counts: Pain - chest/thorax ([3]; NCT00656136): 27/390; # of patients complaining pain/# of patients given afatinib, Counts: Pain in Extremity ([3]; NCT00656136): 27/390; patients complaining pain, Percentage(%): Back Pain ([3]; NCT00656136): 7.43%; patients complaining pain, Percentage(%): Headache ([3]; NCT00656136): 5.38%; patients complaining pain, Percentage(%): Pain - chest/thorax ([3]; NCT00656136): 6.92%; patients complaining pain, Percentage(%): Pain in Extremity ([3]; NCT00656136): 6.92%
